In patent publication US6399562B2, “Solvent compositions” (Ausimont S.p.A., priority 2000, dated 2002):
Like-named read-outs stand apart in the source and are kept apart here.

What was measured:
[1] = background statement; cited from earlier work
[2] = Evaluation of the azeotropic behaviour: boiling temperature at 1.013 bar; type: physicochemical; conditions: pressure of 1.013 absolute bar
Procedure: The mixture of known composition and weight is introduced into a small glass cell, previously evacuated, having an internal volume equal to about 20 cm^3, equipped with metal connections, feeding valve and with a pressure transducer to evaluate the system vapour pressure.
The filling ratio by volume is initially equal to about 0.8% by v.
The temperature is measured close to the equilibrium cell by a thermometer the accuracy of which is equal to +/−0.01° C.; particular attention has been paid so that the external temperature measured in the bath is really the internal one of the cell.
By changing the composition of the mixture it is possible to evaluate possible deviations with respect to the ideality and therefore to identify the azeotropic composition which, as said, will be characterized by an absolute minimum or maximum with respect to the pure components.

[3] = solubility of propellants in solvent compositions for aerosol applications; type: physicochemical
Procedure: The solubility of HFC 134a, HFC 227ea and HFC 236ea with some solvent compositions for aerosol applications for the cleaning of electronic components has been studied. The solvent composition is placed in a glass test tube having thick walls, resistant to high pressures, and closed at an end by a metal valve. After cooling, the propellant is fed to the test tube and mixed with the solvent mixture. The system is introduced in a thermostatic bath and heated up to 0°, 25° and 50° C. The complete solubility of the propellant in the solvent composition used for the test has been visually observed. The solubility results of the used propellants in the solvent compositions, at the above three different temperatures, are reported in Table 7.

rat [4] = assay: Acute toxicity in rat by os, LD50
rat [5] = assay: Acute toxicity in rat by inhalation, LC50
[6] = Preliminary studies relating to acute toxicity; type: in vivo
[7] = chemical-physical properties of the hydrofluoropolyether
[8] = Removal of oily products from printed circuits, oil (4); conditions: 5 minutes of dipping
Procedure: (§1) The removal capability of oily products from printed circuits has been checked according to the following procedure:
(§2) a known amount of an oily product is uniformly spread on the surface of a printed circuit having 35×9 mm sizes; 0.100 g of oil are placed only on a single surface of the circuit, then the article is dipped into the solution to be tested.
(§3) After 5 minutes of dipping, the circuit is allowed to dry for additional 5 minutes at room temperature so as to remove the solvent traces and then is weighed again on an analytical balance.
(§4) Tests of the solvent mixtures are carried out close to the boiling temperature. The compositions are placed in a vessel equipped with a condenser which recovers the vapour of the boiling solution.
(§5) In all the tests 30 ml of the solvent solution have been used.
(§6) The results are reported in Table 6 and are expressed as removed oil percentage.

[9] = Removal of oily products from printed circuits, oil (1); conditions: 5 minutes of dipping
Procedure: as §1, §2, §3
[…] The compositions are placed in a vessel equipped with a condenser which recovers the vapour of the boiling solution.
as §5, §6

[10] = Removal of oily products from printed circuits, oil (3); conditions: 5 minutes of dipping
Procedure: as §1, §2, §3, §4, §5, §6

[11] = Removal of oily products from printed circuits, oil (2); conditions: 5 minutes of dipping
Procedure: as §1, §2, §3, §4, §5, §6

For `CC(F)(Cl)Cl` [HCFC 141b], the flammability [1] is given as “moderately flammable”.

In the case of `COC(C)=O` [Methyl-acetate, methyl-acetate], the “Boiling T of pure Component B” value [2] is reported as “Boiling T = 55.78 °C”.

For `FC(F)C(F)C(F)(F)F` (centres unmarked) [HFC 236ea, 1,1,1,2,3,3-hexafluoropropane], the “solubility of the propellant in the solvent composition” value (from here on “solubility of the propellant”) [3] was “S”.

In the case of `FC(C(F)(F)F)C(F)(F)F` [HFC 227ea, 1,1,1,2,3,3,3-heptafluoropropane], the “solubility of the propellant” value ([3]; in HCF2OCF2CF2OCF2H/Methyl-acetate (75.0) (25.0), propellant 53.2 % by wt, 0 ° C.) is reported as “S”, the “solubility of the propellant” value ([3]; in HCF2OCF2CF2OCF2H/Methyl-acetate (75.0) (25.0), propellant 53.2 % by wt, 25 ° C.) is reported as “S” and the “solubility of the propellant” value ([3]; in HCF2OCF2CF2OCF2H/Methyl-acetate (75.0) (25.0), propellant 53.2 % by wt, 50 ° C.) is reported as “S”.

In the case of `FCC(F)(F)F` [HFC 134a, 1,1,1,2-tetrafluoroethane], the “solubility of the propellant” value ([3]; in HCF2OCF2CF2OCF2H/Bromo-propane (75.0) (25.0), propellant 57.2 % by wt, 0 ° C.) is reported as “S”, the “solubility of the propellant” value ([3]; in HCF2OCF2CF2OCF2H/Bromo-propane (75.0) (25.0), propellant 57.2 % by wt, 25 ° C.) is reported as “S” and the “solubility of the propellant” value ([3]; in HCF2OCF2CF2OCF2H/Bromo-propane (75.0) (25.0), propellant 57.2 % by wt, 50 ° C.) is reported as “S”. The “solubility of the propellant” value ([3]; in HCF2OCF2CF2OCF2H/Isopentane (45.0) (55.0), propellant 51.2 % by wt, 0 ° C.) was “S”, the “solubility of the propellant” value ([3]; in HCF2OCF2CF2OCF2H/Isopentane (45.0) (55.0), propellant 51.2 % by wt, 25 ° C.) was “S” and the “solubility of the propellant” value ([3]; in HCF2OCF2CF2OCF2H/Isopentane (45.0) (55.0), propellant 51.2 % by wt, 50 ° C.) was “S”. The “solubility of the propellant” value ([3]; in HCF2OCF2CF2OCF2H/Methyl-acetate (75.0) (25.0), propellant 51.3 % by wt, 0 ° C.) was “S”, the “solubility of the propellant” value ([3]; in HCF2OCF2CF2OCF2H/Methyl-acetate (75.0) (25.0), propellant 51.3 % by wt, 25 ° C.) was “S” and the “solubility of the propellant” value ([3]; in HCF2OCF2CF2OCF2H/Methyl-acetate (75.0) (25.0), propellant 51.3 % by wt, 50 ° C.) was “S”.

For `CCCBr` [1-Bromo-propane, 1-bromo-propane], the “Boiling T of pure Component B” value [2] was “Boiling T = 69.60 °C”.

For `FC(F)OC(F)(F)C(F)(F)OC(F)F` [HCF2OCF2CF2OCF2H, 1-difluoromethoxy-1,1,2,2-tetrafluoroethyl difluoromethyl ether], the “Acute toxicity in rat by os, LD50” value (rat [4]) was >5,000 ppmv/4 hours, the “Acute toxicity in rat by inhalation, LC50” value (rat [5]) was >32,000 ppmv/4 hours and the “acute toxicity, biological activity” value [6] was “low biological activity”. The “dehydrofluorination reactions (chemical stability)” value [7] was “does not undergo dehydrofluorination reactions”, the “Isotherm evaporation rate at 20° C.” value [7] was 0.6 mg/min and the “Surface tension at 20° C.” value [7] was 15.5 dynes/cm. The “Liquid density at 25° C.” value [7] was 1.60 g/mL, the Boiling temperature ([7]; at 1.013 bar) was 58.21 °C and the Evaporation latent heat ([7]; at 1.013 bar) was 139 kJ/kg. For the same compound, the Flammability in air [7] was “non”.

In the case of `FC(F)(Cl)C(F)(Cl)Cl` [CFC 113, 1,1,2-trichloro-1,2,2-trifluoroethane], the “Acute toxicity in rat by os, LD50” value (rat [4]) is reported as 43,000 ppmv/4 hours, the “Percentage of removed oil, oil type (4)” value ([8]; 23 ° C.) is reported as 100 % by weight and the “Percentage of removed oil, oil type (4)” value ([8]; 47 ° C.) is reported as 100 % by weight. For the same compound, the “Percentage of removed oil, oil type (1)” value ([9]; 23 ° C.) was 100 % by weight, the “Percentage of removed oil, oil type (1)” value ([9]; 47 ° C.) was 100 % by weight and the “Percentage of removed oil, oil type (3)” value ([10]; 23 ° C.) was 100 % by weight. For the same compound, the “Percentage of removed oil, oil type (3)” value ([10]; 47 ° C.) was 100 % by weight, the “Percentage of removed oil, oil type (2)” value ([11]; 23 ° C.) was 99.5 % by weight and the “Percentage of removed oil, oil type (2)” value ([11]; 47 ° C.) was 100 % by weight. For the same compound, the “Acute toxicity in rat by inhalation, LC50” value (rat [5]) was 50,000 ppmv/4 hours, the “Isotherm evaporation rate at 20° C.” value [7] was 1 mg/min and the “Surface tension at 20° C.” value [7] was 18.1 dynes/cm. For the same compound, the “Liquid density at 25° C.” value [7] was 1.56 g/mL, the Evaporation latent heat ([7]; at 1.013 bar) was 144 kJ/kg and the Flammability in air [7] was “non”.
